Earlier results, collected in patent publication US20100105640A1, “Aromatase Inhibitors for Emergency Contraception” (priority 2005, published 2010).

Settings: Yuzpe n = 979, Levonorgestrel n = 977

## C#C[C@]1(O)CC[C@H]2[C@@H]3CCC4=CC(=O)CC[C@@H]4[C@H]3CC[C@@]21CC [Levonorgestrel, levonorgestrel]
  Percent with symptom (95% confidence interval): Breast tenderness: 10.8%
  Percent with symptom (95% confidence interval): Dizziness: 11.2%
  Percent with symptom (95% confidence interval): Fatigue: 16.9%
  Percent with symptom (95% confidence interval): Headache: 16.8%
  Percent with symptom (95% confidence interval): Low abdominal pain: 17.6%
  Percent with symptom (95% confidence interval): Nausea: 23.1%
  Percent with symptom (95% confidence interval): Vomiting: 5.6%
Mostly diarrhea and some irregular bleeding or spotting
  Percent with symptom (95% confidence interval): All other adverse effects: 13.5%
